The values below come from US20090111836A1, “Angular Pyranocoumarins, Process for Preparation and Uses Thereof” (CITY UNIVERSITY OF HONG KONG, priority 2007, published 2009).

Assay [1] relates to KB-3-1 cells. Briefly: SRB growth inhibition assay, KB-3-1. Type of assay: cell-based. Particulars: Homo sapiens, read-out: IC50 (cytotoxicity).
The subject of assay [2] is KB V1 cells. Briefly: SRB growth inhibition assay, KB V1. Type of assay: cell-based, human. The following applies: for IC50: Homo sapiens, read-out: IC50 (cytotoxicity); for Resistant ratio: IC50 KB V1 / IC50 KB-3-1.
Assay [3] deals with HepG2 cells. Briefly: SRB growth inhibition assay, HepG2. Type of assay: cell-based. The following applies: Homo sapiens, read-out: IC50 (cytotoxicity). The method, then:
(§1) K562, K562-DR, HepG2, HepG2-DR were cultured in RPMI-1640 medium containing 10% fetal bovine serum and 100 U/mL, antibiotics. […] Drug test: […] New calorimetric cytotoxicity assay for anticancer-drug screening. […] Mosmann T. Rapid colorimetric assay for cellular growth and survival: application to proliferation and cytotoxicity assays. […] Gerlier D, Thomasset N. […] Each growth inhibition experiment must be repeated three times and results are expressed as mean±standard deviation (SD). Solvents and media were included as blank control. In SRB assay, cells are inoculated at 5000 cells/well in a 96-well microplate and incubated overnight to let cells adhere. Drug treatment lasts for 72 hours and cells are fixed for 1 hour at 4° C. with 50 μl ice-cold 15% trichloroacetic acid and washed with triple-distilled water 5 times. […] The protein-bound dye is dissolved in 100 μl per well of 10 mM Tris base (pH 10.5). The color intensity of SRB, which positively correlate to cell number in preliminary experiments, is estimated at OD 515 nm.

Assay [4] deals with HepG2-DR cells. Briefly: SRB growth inhibition assay, HepG2-DR. The following applies: for IC50: Homo sapiens, 72 h, read-out: IC50 (cytotoxicity); for Resistant ratio: IC50 HepG2-DR / IC50 HepG2. Type of assay: cell-based, human. As to the method: as §1
The subject of assay [5] is K562 cells. Briefly: MTT growth inhibition assay, K562. The following applies: Homo sapiens. Type of assay: cell-based. As to the method: (§2) K562, K562-DR, HepG2, HepG2-DR were cultured in RPMI-1640 medium containing 10% fetal bovine serum and 100 U/mL, antibiotics. […] Drug test: […] New calorimetric cytotoxicity assay for anticancer-drug screening. […] Mosmann T. Rapid colorimetric assay for cellular growth and survival: application to proliferation and cytotoxicity assays. […] Gerlier D, Thomasset N. […] Each growth inhibition experiment must be repeated three times and results are expressed as mean±standard deviation (SD). Solvents and media were included as blank control. In MTT assay, cells are inoculated at 5000 cells/well and are incubated overnight. Drug treatment lasts for 68 h. MTT (5 mg/ml in PBS) is added to each well (1:10 dilution). […] Viable cell number is estimated by correlating to OD at 570 nm.

In assay [6] the test system is K562-DR cells. Briefly: MTT growth inhibition assay, K562-DR. Particulars: for IC50: Homo sapiens, read-out: IC50 (cytotoxicity); for Resistant ratio: IC50 K562-DR / IC50 K562. Type of assay: cell-based, human. The method, then: as §2
A general note: Tetrazolium dyes change colour on reduction, which living cells bring about.

The test system of assay [7] is HepG2 cells. Briefly: Cell cycle distribution by flow cytometry, HepG2. Type of assay: cell-based, human. The method, then: (§3) 1.2 Instruments: FACSCAN flow cytometry (Becton Dickinson Immunocytometry Systems, San Jose, Calif.), the obtained data were analyzed using the software of Macintosh CellQuest.
(§4) 1.3 Cell lines: HepG2, HepG2-DR.
(§5) 1.4 Drug treatment: HepG2 and HepG2-DR cells were respectively treated with each of cis-DMDCK, cis-DMDBK, trans-DMDCK, trans-DMDBK and doxorubicin for 48 hours, or treated respectively with the combination of doxorubicin and one of cis-DMDCK, cis-DMDBK, trans-DMDCK, trans-DMDBK for 48 hours.
(§6) 1.5 Treatment and detection of sample cells: after washed twice by ice-cold PBS, the cells were fixed with 70% ethanol at −20° C. overnight. The fixed cells were washed by PBS once and resuspended in 1 mL of PBS containing 100 μg/mL RNAase A and incubated at 37° C. for 30 minutes. Finally, propidium iodide solution (final concentration is 40 μg/mL,) was added to bind with DNA and incubated at room temperature for 5-10 minutes. Cells were analyzed by FACSCAN flow cytometry immediately.
A general note: In flow cytometry, cells or beads pass a laser one at a time.

The test system of assay [8] is HepG2-DR cells. Briefly: Cell cycle distribution by flow cytometry (doxorubicin-induced G2/M arrest), HepG2-DR. Type of assay: cell-based, human. The following applies: for Cell cycle distribution, G0/G1 / Cell cycle distribution, G2/M / Cell cycle distribution, S / Cell cycle distribution, SubG1: HepG2-DR, 48 h. As to the method:
as §3, §4, §5, §6

The subject of assay [9] is Pgp-MDR cells. Particulars: Wu et al., Eur J Pharmacol 2003; cited from earlier work.
[10] abbreviates: K562, MTT, (×10^−3), read-out: IC50 (cytotoxicity).

Like-named read-outs stand apart in the source and are kept apart here.

The IC50 is the concentration that inhibits the measured activity by half.

With `COc1cccc2c1C(=O)c1c(O)c3c(c(O)c1C2=O)C[C@@](O)(C(=O)CO)C[C@@H]3O[C@H]1C[C@H](N)[C@H](O)[C@H](C)O1` [Doxorubicin, reference compound], the IC50 in [1] (KB-3-1, SRB, 72 h) is 180 ± 40 nM; in assay [2] (KB V1, SRB, 72 h) it was 32000 ± 2740 nM; in assay [3] (HepG2, SRB, 72 h), 170 ± 100 nM; in assay [4] (HepG2-DR, SRB) it was 37300 ± 2420 nM; in [5] (K562, MTT, read-out: IC50 (cytotoxicity)) it was 240 ± 80 nM; in [6] (K562-DR, MTT) it was 31000 ± 17100 nM. In addition, the Resistant ratio in assay [2] is listed as 178; in [4] it was 219; in assay [6], 129. Moreover, the “Cell cycle distribution, G0/G1” value in [7] (HepG2, 0.2 μM alone, 48 h) turned out to be 4.92 ± 0.91%; in assay [8] (1 μM alone), 51.33 ± 0.92%; in assay [8] (10 μM alone) it was 24.81 ± 0.23%; in assay [8] (50 μM alone), 12.05 ± 5.08%. Further, the “Cell cycle distribution, G2/M” value worked out at 76.57 ± 1.32% in [7] (HepG2, 0.2 μM alone, 48 h); 33.47 ± 0.17% in assay [8] (1 μM alone); 60.80 ± 0.79% in assay [8] (10 μM alone); 73.43 ± 9.00% in [8] (50 μM alone). For the same compound, the “Cell cycle distribution, S” value is recorded as 8.89 ± 0.83% in assay [7] (HepG2, 0.2 μM alone, 48 h); 7.74 ± 3.57% in assay [8] (1 μM alone); 6.86 ± 1.80% in [8] (10 μM alone); 5.58 ± 1.34% in assay [8] (50 μM alone). For the same compound, the “Cell cycle distribution, SubG1” value in [7] (HepG2, 0.2 μM alone, 48 h) stood at 0.92 ± 0.45%; in [8] (1 μM alone) it was 2.37 ± 0.34%; in assay [8] (10 μM alone) it was 3.37 ± 0.17%; in [8] (50 μM alone) it was 4.88 ± 0.75%. Also, the “Concentration achieving almost a complete G2/M arrest” value in assay [7] (drug sensitive HepG2 cells) was determined as 0.2 µM. The “Concentration required for almost a complete G2/M arrest” value in [8] (P-glycoprotein-overexpressing HepG2-DR cells) is “over 50 μM”.
`CC(=O)O[C@H]1C(=O)[C@@]2(C)[C@H]([C@H](OC(=O)c3ccccc3)[C@]3(O)C[C@H](OC(=O)[C@H](O)[C@@H](NC(=O)c4ccccc4)c4ccccc4)C(C)=C1C3(C)C)[C@]1(OC(C)=O)CO[C@@H]1C[C@@H]2O` [Paclitaxel]: the IC50 stood at 2 ± 1 nM in assay [1] (KB-3-1, SRB, 72 h); 8000 ± 1480 nM in assay [2] (KB V1, SRB, 72 h); 6.07 ± 2.61 nM in assay [3] (HepG2, SRB, 72 h, (×10^−3)); 4230 ± 60 nM in assay [4] (HepG2-DR, SRB); 0.6 ± 0.23 nM in assay [5] (setting [10]); 3250 ± 450 nM in assay [6] (K562-DR, MTT). For the same compound, the results for the Resistant ratio in [2], in assay [4] and in [6] were 4000, 696 and 5417, respectively.
As to `COc1ccc(C[C@H](N)C(=O)N[C@H]2[C@@H](O)[C@H](n3cnc4c(N(C)C)ncnc43)O[C@@H]2CO)cc1` [Puromycin], the IC50 in [1] (KB 3-1, 72 h) was found to be 210 ± 50 nM; in assay [2] (KB-V1, 72 h), 79300 ± 8810 nM; in assay [3] (HepG2, 72 h), 170 ± 70 nM; in [4], 104000 ± 2480 nM; in assay [5] (K562, read-out: IC50 (cytotoxicity)) it was 390 ± 160 nM; in assay [6] it was 47700 ± 9000 nM. In addition, the Resistant ratio was found to be 378 in assay [2], 597 in assay [4] and 122 in assay [6].
As to `CC[C@]1(O)C[C@@H]2CN(CCc3c([nH]c4ccccc34)[C@@](C(=O)OC)(c3cc4c(cc3OC)N(C)[C@H]3[C@@](O)(C(=O)OC)[C@H](OC(C)=O)[C@]5(CC)C=CCN6CC[C@]43[C@@H]65)C2)C1` [Vinblastine], the IC50 in [1] (KB-3-1, SRB, 72 h, (×10^−3)) was 0.11 ± 0.01 nM; in [2] (KB V1, SRB, 72 h), 1040 ± 340 nM; in assay [3] (HepG2, SRB, 72 h, (×10^−3)), 0.1 ± 0.01 nM; in [4] (HepG2-DR, SRB) it was 310 ± 60 nM; in [5] (setting [10]), 0.88 ± 0.25 nM; in assay [6] (K562-DR, MTT) it was 200 ± 70 nM. In addition, the Resistant ratio stood at 9271 in assay [2], 3100 in assay [4] and 227 in [6].
On to (±)-Praeruptorin A, for which the “Enhancement of drug sensitivity of Pgp-MDR cells” value in assay [9] is reported as “only moderate”.
